Experimental data from US8222404B2, “[1,2,4]Thiadiazin-3-yl acetic acid compound and methods of making the acetic acid compound” (Anadys Pharmaceuticals, Inc., priority 2008, dated 2012).

System: HCV Huh-luc/neo-ET replicon cells
Assay: Luciferase-Based HCV Replicon Assay (EC50 (1b))
Format: cell-based
Details: Hepatitis C virus, 72 hours exposure, luciferase activity
Method in brief: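 EC50 (1b) derived from % inhibition of luciferase signal relative to untreated cells, background set by 100 nM BILN-2061 (protease inhibitor). Triplicate dose series added to replicon cells 24 h post-seeding; luminescence measured after 72 h compound exposure.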

Row | Compound | EC50 [nM]
1 | CS(=O)(=O)NCc1csc2c1S(=O)(=O)N=C(C1=C(O)[C@@H]3[C@H]4CC[C@H](C4)[C@@H]3N(Cc3ccc(F)cc3F)C1=O)N2 [Example 49, N-{3-[(1R,2S,7R,8S)-3-(2,4-Difluoro-benzyl)-6-hydroxy-4-oxo-3-aza-tricyclo[6.2.1.0^2,7]undec-5-en-5-yl]-1,1-dioxo-1,4-dihydro-1λ^6-thieno[2,3-e][1,2,4]thiadiazin-7-ylmethyl}-methanesulfonamide] | 20 to 100
2 | CS(=O)(=O)NCc1csc2c1S(=O)(=O)N=C(C1=C(O)[C@@H]3[C@H]4CC[C@H](C4)[C@@H]3N(Cc3ccccc3)C1=O)N2 [Example 50, N-[3-((1R,2S,7R,8S)-3-Benzyl-6-hydroxy-4-oxo-3-aza-tricyclo[6.2.1.0^2,7]undec-5-en-5-yl)-1,1-dioxo-1,4-dihydro-1λ^6-thieno[2,3-e][1,2,4]thiadiazin-7-ylmethyl]-methanesulfonamide] | ≤ 5
3 | CS(=O)(=O)NCc1csc2c1S(=O)(=O)N=C(C1=C(O)[C@@H]3C4CCC(CC4)[C@@H]3N(Cc3ccc(F)cc3F)C1=O)N2 [Example 51, N-{3-[(2S,7R)-3-(2,4-Difluoro-benzyl)-6-hydroxy-4-oxo-3-aza-tricyclo[6.2.2.0^2,7]dodec-5-en-5-yl]-1,1-dioxo-1,4-dihydro-1λ^6-thieno[2,3-e][1,2,4]thiadiazin-7-ylmethyl}-methanesulfonamide] | 20 to 100
4 | Cc1cc(CN2C(=O)C(C3=NS(=O)(=O)c4c(CNS(C)(=O)=O)csc4N3)=C(O)[C@@H]3C4CCC(CC4)[C@@H]32)ccc1F [Example 52, N-{3-[(2S,7R)-3-(4-Fluoro-3-methyl-benzyl)-6-hydroxy-4-oxo-3-aza-tricyclo[6.2.2.0^2,7]dodec-5-en-5-yl]-1,1-dioxo-1,4-dihydro-1λ^6-thieno[2,3-e][1,2,4]thiadiazin-7-ylmethyl}-methanesulfonamide] | ≤ 5
5 | Cc1cc(CN2C(=O)C(C3=NS(=O)(=O)c4c(CNS(C)(=O)=O)csc4N3)=C(O)[C@@H]3[C@H]4CC[C@H](C4)[C@@H]32)ccc1F [Example 53, N-{3-[(1R,2S,7R,8S)-3-(4-Fluoro-3-methyl-benzyl)-6-hydroxy-4-oxo-3-aza-tricyclo[6.2.1.0^2,7]undec-5-en-5-yl]-1,1-dioxo-1,4-dihydro-1λ^6-thieno[2,3-e][1,2,4]thiadiazin-7-ylmethyl}-methanesulfonamide] | 5 to 20
6 | CS(=O)(=O)NCc1csc2c1S(=O)(=O)N=C(C1=C(O)[C@@H]3[C@H]4CC[C@H](C4)[C@@H]3N(Cc3cc(F)c(F)c(F)c3)C1=O)N2 [Example 54, N-{3-[(1R,2S,7R,8S)-6-Hydroxy-4-oxo-3-(3,4,5-trifluoro-benzyl)-3-aza-tricyclo[6.2.1.0^2,7]undec-5-en-5-yl]-1,1-dioxo-1,4-dihydro-1λ^6-thieno[2,3-e][1,2,4]thiadiazin-7-ylmethyl}-methanesulfonamide] | 5 to 20
7 | CS(=O)(=O)NCc1csc2c1S(=O)(=O)N=C(C1=C(O)[C@@H]3[C@H]4CC[C@H](C4)[C@@H]3N(Cc3ccsc3)C1=O)N2 [Example 55, N-[(1R,2S,7R,8S)-3-(6-Hydroxy-4-oxo-3-thiophen-3-ylmethyl-3-aza-tricyclo[6.2.1.0^2,7]undec-5-en-5-yl)-1,1-dioxo-1,4-dihydro-1λ^6-thieno[2,3-e][1,2,4]thiadiazin-7-ylmethyl]-methanesulfonamide] | ≤ 5
8 | Cc1cc(CN2C(=O)C(C3=NS(=O)(=O)c4c(CNS(C)(=O)=O)csc4N3)=C(O)[C@@H]3[C@@H]4CC[C@@H](C4)[C@@H]32)ccc1F [Example 56, N-{3-[(1S,2S,7R,8R)-3-(4-Fluoro-3-methyl-benzyl)-6-hydroxy-4-oxo-3-aza-tricyclo[6.2.1.0^2,7]undec-5-en-5-yl]-1,1-dioxo-1,4-dihydro-1λ^6-thieno[2,3-e][1,2,4]thiadiazin-7-ylmethyl}-methanesulfonamide] | 20 to 100
9 | CS(=O)(=O)NCc1csc2c1S(=O)(=O)N=C(C1=C(O)[C@@H]3[C@@H]4CC[C@@H](C4)[C@@H]3N(Cc3cc(F)c(F)c(F)c3)C1=O)N2 [Example 57, N-{3-[(1S,2S,7R,8R)-6-Hydroxy-4-oxo-3-(3,4,5-trifluoro-benzyl)-3-aza-tricyclo[6.2.1.0^2,7]undec-5-en-5-yl]-1,1-dioxo-1,4-dihydro-1λ^6-thieno[2,3-e][1,2,4]thiadiazin-7-ylmethyl}-methanesulfonamide] | 5 to 20
10 | CS(=O)(=O)NCc1csc2c1S(=O)(=O)N=C(C1=C(O)[C@@H]3[C@@H]4CC[C@@H](C4)[C@@H]3N(Cc3ccsc3)C1=O)N2 [Example 58, N-[3-((1S,2S,7R,8R)-6-Hydroxy-4-oxo-3-thiophen-3-ylmethyl-3-aza-tricyclo[6.2.1.0^2,7]undec-5-en-5-yl)-1,1-dioxo-1,4-dihydro-1λ^6-thieno[2,3-e][1,2,4]thiadiazin-7-ylmethyl]-methanesulfonamide] | 5 to 20
11 | CC(C)(C)CCN1C(=O)C(C2=NS(=O)(=O)c3c(CNS(C)(=O)=O)csc3N2)=C(O)[C@@H]2[C@@H]3CC[C@@H](C3)[C@@H]21 [Example 59, N-{3-[(1S,2S,7R,8R)-3-(3,3-Dimethyl-butyl)-6-hydroxy-4-oxo-3-aza-tricyclo[6.2.1.0^2,7]undec-5-en-5-yl]-1,1-dioxo-1,4-dihydro-1λ^6-thieno[2,3-e][1,2,4]thiadiazin-7-ylmethyl}-methanesulfonamide] | 20 to 100
12 | CS(=O)(=O)NCc1csc2c1S(=O)(=O)N=C(C1=C(O)[C@@H]3C4CCC(CC4)[C@@H]3N(Cc3ccsc3)C1=O)N2 [Example 60, N-[3-((2S,7R)-6-Hydroxy-4-oxo-3-thiophen-3-ylmethyl-3-aza-tricyclo[6.2.2.0^2,7]dodec-5-en-5-yl)-1,1-dioxo-1,4-dihydro-1λ^6-thieno[2,3-e][1,2,4]thiadiazin-7-ylmethyl]-methanesulfonamide] | ≤ 5
13 | CC(C)(C)CCN1C(=O)C(C2=NS(=O)(=O)c3c(CNS(C)(=O)=O)csc3N2)=C(O)[C@@H]2[C@H]3CC[C@H](C3)[C@@H]21 [Example 67, N-{3-[(1R,2S,7R,8S)-3-(3,3-Dimethyl-butyl)-6-hydroxy-4-oxo-3-aza-tricyclo[6.2.1.0^2,7]undec-5-en-5-yl]-1,1-dioxo-1,4-dihydro-1λ^6-thieno[2,3-e][1,2,4]thiadiazin-7-ylmethyl}-methanesulfonamide] | 5 to 20
14 | CC(C)CCN1C(=O)C(C2=NS(=O)(=O)c3c(CNS(C)(=O)=O)csc3N2)=C(O)[C@@H]2[C@H]3CC[C@H](C3)[C@@H]21 [Example 68, N-{3-[(1R,2S,7R,8S)-6-Hydroxy-3-(3-methyl-butyl)-4-oxo-3-aza-tricyclo[6.2.1.0^2,7]undec-5-en-5-yl]-1,1-dioxo-1,4-dihydro-1λ^6-thieno[2,3-e][1,2,4]thiadiazin-7-ylmethyl}-methanesulfonamide] | 5 to 20
15 | CC(C)CCN1C(=O)C(C2=NS(=O)(=O)c3c(CNS(C)(=O)=O)csc3N2)=C(O)[C@@H]2[C@@H]3CC[C@@H](C3)[C@@H]21 [Example 69, N-{3-[(1S,2S,7R,8R)-6-Hydroxy-3-(3-methyl-butyl)-4-oxo-3-aza-tricyclo[6.2.1.0^2,7]undec-5-en-5-yl]-1,1-dioxo-1,4-dihydro-1λ^6-thieno[2,3-e][1,2,4]thiadiazin-7-ylmethyl}-methanesulfonamide] | 20 to 100
16 | CS(=O)(=O)NCc1csc2c1S(=O)(=O)N=C(C1=C(O)[C@@H]3C4CCC(CC4)[C@@H]3N(Cc3cc(F)c(F)c(F)c3)C1=O)N2 [Example 70, N-{3-[(2S,7R)-6-Hydroxy-4-oxo-3-(3,4,5-trifluoro-benzyl)-3-aza-tricyclo[6.2.2.0^2,7]dodec-5-en-5-yl]-1,1-dioxo-1,4-dihydro-1λ^6-thieno[2,3-e][1,2,4]thiadiazin-7-ylmethyl}-methanesulfonamide] | ≤ 5
17 | CC(C)CCN1C(=O)C(C2=NS(=O)(=O)c3c(CNS(C)(=O)=O)csc3N2)=C(O)[C@@H]2C3CCC(CC3)[C@@H]21 [Example 71, N-{3-[(2S,7R)-6-Hydroxy-3-(3-methyl-butyl)-4-oxo-3-aza-tricyclo[6.2.2.0^2,7]dodec-5-en-5-yl]-1,1-dioxo-1,4-dihydro-1λ^6-thieno[2,3-e][1,2,4]thiadiazin-7-ylmethyl]-methanesulfonamide] | 5 to 20
18 | COc1ccc(CN2C(=O)C(C3=NS(=O)(=O)c4c(CNS(C)(=O)=O)csc4N3)=C(O)[C@@H]3[C@H]4CC[C@H](C4)[C@@H]32)c(OC)c1 [Example 72, N-{3-[(1R,2S,7R,8S)-3-(2,4-Dimethoxy-benzyl)-6-hydroxy-4-oxo-3-aza-tricyclo[6.2.1.0^2,7]undec-5-en-5-yl]-1,1-dioxo-1,4-dihydro-1λ^6-thieno[2,3-e][1,2,4]thiadiazin-7-ylmethyl}-methanesulfonamide] | > 1000
19 | COc1ccc(CN2C(=O)C(C3=NS(=O)(=O)c4c(CNS(C)(=O)=O)csc4N3)=C(O)[C@@H]3[C@@H]4CC[C@@H](C4)[C@@H]32)c(OC)c1 [Example 73, N-{3-[(1S,2S,7R,8R)-3-(2,4-Dimethoxy-benzyl)-6-hydroxy-4-oxo-3-aza-tricyclo[6.2.1.0^2,7]undec-5-en-5-yl]-1,1-dioxo-1,4-dihydro-1λ^6-thieno[2,3-e][1,2,4]thiadiazin-7-ylmethyl}-methanesulfonamide] | > 1000
20 | COc1ccc(CN2C(=O)C(C3=NS(=O)(=O)c4c(CNS(C)(=O)=O)csc4N3)=C(O)[C@@H]3C4CCC(CC4)[C@@H]32)c(OC)c1 [Example 74, N-{3-[(2S,7R)-3-(2,4-Dimethoxy-benzyl)-6-hydroxy-4-oxo-3-aza-tricyclo[6.2.2.0^2,7]dodec-5-en-5-yl]-1,1-dioxo-1,4-dihydro-1λ^6-thieno[2,3-e][1,2,4]thiadiazin-7-ylmethyl}-methanesulfonamide] | > 1000
21 | COc1ccc(CN2C(=O)C(C3=NS(=O)(=O)c4c(CNS(C)(=O)=O)csc4N3)=C(O)[C@@H]3CCC[C@@H]32)c(OC)c1 [Example 77, (4aR,7aS)-N-{3-[1-(2,4-Dimethoxy-benzyl)-4-hydroxy-2-oxo-2,4a,5,6,7,7a-hexahydro-1H-[1]pyrindin-3-yl]-1,1-dioxo-1,4-dihydro-1λ^6-thieno[2,3-e][1,2,4]thiadiazin-7-ylmethyl}-methanesulfonamide] | > 1000
